# In patent US9956199B2, “Chromane-like cyclic prenylflavonoids for the medical intervention in neurological disorders” (priority 2011, dated 2018):
# Entries after “also recorded” stand apart in the source; their conditions may differ.
# Columns and labels:
# [1] = tested on: chicken dorsal root ganglion neurons; assay: neurite outgrowth in primary chicken dorsal root ganglion neurons; format: cell-based; settings: E8 and E15 DRG neurons, 12 to 24 hours; compound 1a 10 μM, NGF 20 ng/ml; GAP-43 staining
# Protocol: Dorsal root ganglion neurons comprise of an axon with two branches and are a good model for neuronal differentiation. Embryonic day 8 and 15 chicken dorsal root ganglions were examined for immunochemical staining with GAP43 after incubation with NGF 20 ng/ml and compound 1a (ENDF1) 10 μM to analyze whether compound 1a alone or in combination with the nerve growth factor enhances neurite outgrowth and branching.
# Embryonic day (E) 8 and E15 chicken Dorsal Root Ganglions (DRGs) were prepared as described in: Aigner, 1993; Aigner, 1995. Briefly, foetuses were taken out of the egg, decapitated and the DRGs were targeted from the ventral side. The 10 lumbar region DRGs per foetus were dissected, and a total of 100 DRGs were collected in 10 ml DPBS in a 15 ml Falcon tube. DRGs were centrifuged 120×g for 3 min and then enzymatically treated with 1 ml trypsin 0.5 mg/ml+EDTA 0.22 mg/ml (PAA, Pasching, Austria) for 15 min. Then, 9 ml of DMEM 10% FCS were added to inactivate the trypsin and DRGs were centrifuged 120×g for 5 min. DRGs were resuspended and washed with 5 ml of DMEM 10% FCS, pipetted up and down to dissociate them, centrifuged, resuspended in 5 ml of DMEM 10% FCS and transferred into a 60 mm diameter cell culture dish. […]
# PC12 cells [2] = assay: PC12 cobalt-chloride stress test, Caspase 3/7 activation; format: cell-based, rat; settings: CoCl2 300 μM, 24 hours; compounds 10 μM, NGF 50 ng/ml; FIG. 7A
# Protocol: (§1) For the neuroprotection assay PC12 cells were stressed with cobalt chloride 300 μM for 24 hours and the activity of Caspase 3/7 and LDH release were measured. NGF 50 ng/ml was used as a positive control for Caspase 3/7 activity and NGF 100 ng/ml was used as a positive control for LDH release.
# (§2) For the PC12-CoCl2-Assay PC12 cells were used (ATCC: CRL-1721 ™). These cells were growing in RPMI supplemented with 10% Horse Serum (heat inactivated) (Sigma Aldrich, Taufkirchen, Germany), 5% Fetal Bovine Serum (Lonza, Wuppertal, Germany), 2.5% Penicillin/Streptomycin and Glutamine (PAA, Pasching, Austria) as adherent cultures when the plates are coated with Poly-L-ornithine ([…] in water) for at least one hour at 37° C. For passaging PC12-cells were resuspended with Accutase (PAA, Pasching, Austria) for 10 minutes at 37° C. once a week.
# (§3) For all experiments cells were plated (quadruplicates) on Poly-L-ornithine-coated 96-well plates at a density of 10^4 cells per well. For Caspase 3/7-measurement cells were seeded in a white 96-well-plate to detect luminescence. As positive-control for neuroprotection Nerve Growth Factor (NGF) (50 ng/ml and 100 ng/ml) was used. To induce hypoxia CoCl2 (300 μM) was added to the cells after 20-24 hours. The control-treatment was compound 1a (ENDF1), compound 1b (ENDF3), compound 3a (ENDF2), ENDF4 or Osajin in the concentrations 1 μM and 10 μM in proliferation-media without CoCl2.
# For Caspase 3/7-activation Caspase 3/7 substrate was added to the cells in an equal amount 22 hours after stimulation. Plates are incubated for 2 hours at room temperature in the dark, luminescence was measured 24 hours after stimulation and the blank-values are subtracted.
# PC12 cells [3] = assay: PC12 cobalt-chloride stress test, LDH release; format: cell-based, rat; settings: CoCl2 300 μM, 24 hours; compounds 10 μM, NGF 100 ng/ml; FIG. 7B
# Protocol: as §1, §2, §3
# For LDH-release cells were centrifuged at 1050 rpm for 5 minutes. After 24 hours of stimulation, the supernatant was mixed in an equal amount with LDH-substrate and incubated in the dark for 30 minutes. Afterwards stop solution was added and absorbance was measured at 490 nm, the blank-values are subtracted.
substance,measurement,setting,value
"NGF: Nerve Growth Factor, positive control for neuroprotection and neurite outgrowth",neurite extension,[1],strongly promote neurite extension; also recorded: potent enhancer of neuronal differentiation
same,protection from CoCl2 induced Caspase 3/7 activity,PC12 cells [2],partially protected; also recorded: inhibits CoCl2 induced Caspase 3/7 activity
same,protection from CoCl2 induced LDH release (cell death),PC12 cells [3],partially protected; also recorded: slightly decrease the LDH release
